Reference: US20170266154A1, “METHOD FOR TREATING ALZHEIMER'S DISEASE AND 2, 3-BIPHOSPHOGLYCERATE METABOLISM DISORDER INDUCED” (National Sun Yat-sen University, priority 2016, published 2017)

Target: hemoglobin (Homo sapiens, UniProt P68871+P69905)
Assay: hemoglobin-oxygen equilibrium curves (P50 value, oxygen saturation fraction)
Format: biochemical
Conditions: for effect in combination with 2,3-BPG on hemoglobin modulation: FIG. 2
Source text: The oxygen affinity of hemoglobin was represented by P50 value. The P50 value was the required partial pressure of oxygen to achieve 50% oxygen saturation.

[1] = PO2 20 mmHg, 2,3-BPG 1.2 mM, alone or after treating with a phthalide compound (FIG. 7)

hemoglobin, sequence (P69905 2-142 limits assumed): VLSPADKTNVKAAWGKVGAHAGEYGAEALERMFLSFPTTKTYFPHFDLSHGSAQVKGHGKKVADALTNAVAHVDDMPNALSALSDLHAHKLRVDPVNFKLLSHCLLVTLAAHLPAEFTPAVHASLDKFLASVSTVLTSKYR
hemoglobin, sequence (P68871 2-147 limits assumed): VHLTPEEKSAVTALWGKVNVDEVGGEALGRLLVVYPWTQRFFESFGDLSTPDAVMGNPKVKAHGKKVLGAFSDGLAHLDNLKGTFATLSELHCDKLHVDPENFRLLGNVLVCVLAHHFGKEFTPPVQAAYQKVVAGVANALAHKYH

Compound | effect in combination with 2,3-BPG on hemoglobin modulation | oxygen release efficiency [1] [%] | oxygen saturation level / fraction of hemoglobin [1] | P50 value of hemoglobin (about 4 mM 2,3-BPG, no phthalide compound) [mmHg] | oxygen release efficiency of hemoglobin (oxygen partial pressure 20 mmHg, 12 mM 2,3-BPG, hemoglobin without 2,3-BPG 20%) [%] | oxygen saturation fraction of hemoglobin (oxygen partial pressure 20 mmHg, 12 mM 2,3-BPG, hemoglobin without 2,3-BPG about 80%) [%] | 2,3-BPG required for hemoglobin to reach a P50 value of 18.8 mmHg (approximately the same or higher) (without or after administration of phthalide compounds (FIG. 6))
CCC/C=C1\OC(=O)C2=C1CCC=C2 [Z-Ligustilide, Z-ligustilide] | synergistic effect |  |  |  |  |  | 
O=C(O)C(COP(=O)(O)O)OP(=O)(O)O (centres unmarked) [2,3-BPG, 2,3-bisphosphorglycerate] |  | 40 | about 60% | 18.8 | 65 | ~35 | about 4 mM
CCC/C=C1\OC(=O)C2=C1CC[C@@H](O)[C@@H]2O [Senkyunolide I, senkyunolide I] | synergistic effect |  |  |  |  |  | 
